Laboratory results from patent US10125148B2, “Pyrazolopyrimidine macrocycles as inhibitors of human immunodeficiency virus replication” (priority 2014, dated 2018).

What follows are molecules tested on NL-RLuc virus (assay: Inhibition of HIV replication (NL-RLuc luciferase reporter virus in MT-2 cells)). Conditions: Human immunodeficiency virus 1, MT2, 120 h.
Assay type: cell-based

SMILES | EC50 [nM]
Cc1ccc2c(c1)-c1cccc(c1)-c1cc3nc(C)c([C@H](OC(C)(C)C)C(=O)O)c(n3n1)N1CCC(C)(CCC=CCC(C)O2)CC1 (stereo in doubt) [Example 20, (2S)-2-(tert-Butoxy)-2-[(22S)-4,17,22,28-tetramethyl-21-oxa-1,5,7,8-tetraazahexacyclo[26.2.2.1^6,9.1^10,14.0^2,7.0^15,20]tetratriaconta-2,4,6(34),8,10(33),11,13,15(20),16,18,24-undecaen-3-yl]acetic acid] | 133
Cc1nc2cc3nn2c(c1[C@H](OC(C)(C)C)C(=O)O)N1CCC(C)(CCC=CCC(C)Oc2ccc(C#N)cc2-c2cccc-3c2)CC1 (stereo in doubt) [Example 22, (2S)-2-(tert-Butoxy)-2-[(22S)-17-cyano-4,22,28-trimethyl-21-oxa-1,5,7,8-tetraazahexacyclo[26.2.2.1^6,9.1^10,14.0^2,7.0^15,20]tetratriaconta-2,4,6(34),8,10(33),11,13,15(20),16,18,24-undecaen-3-yl]acetic acid] | 13
Cc1nc2cc3nn2c(c1[C@H](OC(C)(C)C)C(=O)O)N1CCC(C)(CCCCCC(C)Oc2ccc(C#N)cc2-c2cccc-3c2)CC1 (stereo in doubt) [Example 23, (2S)-2-(tert-Butoxy)-2-[(22S)-17-cyano-4,22,28-trimethyl-21-oxa-1,5,7,8-tetraazahexacyclo[26.2.2.1^6,9.1^10,14.0^2,7.0^15,20]tetratriaconta-2,4,6(34),8,10(33),11,13,15(20),16,18-decaen-3-yl]acetic acid] | 24
Cc1nc2cc3nn2c(c1[C@H](OC(C)(C)C)C(=O)O)N1CCC(C)(CCCCCC(C)Oc2ccc(C(N)=O)cc2-c2cccc-3c2)CC1 (stereo in doubt) [Example 24, (2S)-2-(tert-butoxy)-2-[(22S)-17-carbamoyl-4,22,28-trimethyl-21-oxa-1,5,7,8-tetraazahexacyclo[26.2.2.1^6,9.1^10,14.0^2,7.0^15,20]tetratriaconta-2,4,6(34),8,10(33),11,13,15(20),16,18-decaen-3-yl]acetic acid] | 4
Cc1nc2cc3nn2c(c1[C@H](OC(C)(C)C)C(=O)O)N1CCC(C)(CC1)OCCCC[C@H](C)Oc1ccc(C(F)(F)F)cc1-c1cccc-3c1 [Example 1, (2S)-2-(tert-Butoxy)-2-[(22S)-4,22,28-trimethyl-17-(trifluoromethyl)-21,27-dioxa-1,5,7,8-tetraazahexacyclo[26.2.2.1^6,9.1^10,14.0^2,7.0^15,20]tetratriaconta-2,4,6(34),8,10(33),11,13,15(20),16,18-decaen-3-yl]acetic acid] | 39
Cc1nc2cc3nn2c(c1[C@H](OC(C)(C)C)C(=O)O)N1CCC(C)(CC1)OCCCC[C@H](C)Oc1cc(F)c(F)cc1-c1cccc-3c1 [Example 2, (2S)-2-(tert-Butoxy)-2-[(22S)-17,18-difluoro-4,22,28-trimethyl-21,27-dioxa-1,5,7,8-tetraazahexacyclo[26.2.2.1^6,9.1^10,14.0^2,7.0^15,20]tetratriaconta-2,4,6(34),8,10(33),11,13,15(20),16,18-decaen-3-yl]acetic acid] | 26
Cc1nc2cc3nn2c(c1[C@H](OC(C)(C)C)C(=O)O)N1CCC(C)(CC1)OCCCC[C@H](C)Oc1cc(F)cc(F)c1-c1cccc-3c1 [Example 3, (2S)-2-(tert-Butoxy)-2-[(22S)-16,18-difluoro-4,22,28-trimethyl-21,27-dioxa-1,5,7,8-tetraazahexacyclo[26.2.2.1^6,9.1^10,14.0^2,7.0^15,20]tetratriaconta-2,4,6(34),8,10(33),11,13,15(20),16,18-decaen-3-yl]acetic acid] | 26
Cc1cc(F)c2c(c1)O[C@@H](C)C/C=C/COC1(C)CCN(CC1)c1c([C@H](OC(C)(C)C)C(=O)O)c(C)nc3cc(nn13)-c1cccc-2c1 [Example 4, (2S)-2-(tert-Butoxy)-2-[(22S,24E)-16-fluoro-4,18,22,28-tetramethyl-21,27-dioxa-1,5,7,8-tetraazahexacyclo[26.2.2.1^6,9.1^10,14.0^2,7.0^15,20]tetratriaconta-2,4,6(34),8,10(33),11,13,15(20),16,18,24-undecaen-3-yl]acetic acid] | 23
